Assays:
HeLa cells = assay: Cellular toxicity, CCK-8 assay, HeLa; type: cell-based, Human; conditions: 24 h
Protocol: (§1) All cell lines, purchased from Cedarlane (Burlington, ON, Canada), were used in the current study and cultured in their respective culture medium as follows: Human Cervical Adenocarcinoma: HeLa (CCL-2) in Eagle's Minimum Essential Medium (EMEM) (ATCC30-2003), Human lung cancer: A549 (CCL-185) in F-12 medium (ATCC30-2004). All medium solutions were prepared with 10% fetal bovine serum (FBS-[…]). Two human cancer cell lines, with 10^4 cells per well concentrations, were seeded in 96-well plates, followed by treatment with different peptide-drug complex ratios for 24 h. Cellular-toxicity experiments were performed with sensitive colorimetric assay called Cell counting kit-8 (CCK-8) (Dojindo Molecular Technologies, Inc. Burlington, ON, Canada). CCK-8 contains highly water-soluble tetrazolium salt (WST-8), which is reduced by dehydrogenase activities in cells to give the yellow color of the formazan dye, which is soluble in culture media. The amount of formazan dye is measured by absorption (O.D.) at 450 nm, which is directly proportional to the number of living cells.

[1] = Solubilisation of THP in water and EAR8-II solution (appearance); type: physicochemical; conditions: visual appearance
Protocol: To determine a suitable concentration of required EAR8-II for THP encapsulation, different concentrations of EAR8-II, in a range of 0.05–1.0 mg/mL, were prepared and combined with THP at 0.1 mg/mL concentration in aqueous solution. Solubility of THP in water is very low, whereas it can be dissolved and stabilized in an EAR8-II solution at a minimum concentration of 0.2 mg/mL. […] However, at higher EAR8-II concentrations (0.2–0.6 mg/mL), THP molecules were fully dissolved, and consequently, a clear-transparent solution of the peptide-drug complexes formed. At much higher peptide concentrations (above 0.6 mg/mL), THP molecules were still fully soluble, but the excess amount of EAR8-II produced a cloudier solution, with clearly a higher particle size distribution. Note that amphiphilic features of EAR8-II, including the ionic and hydrophobic residues, stimulated binding with hydrophobic molecules of THP through protonation of NH2 to NH3^+ in THP molecules and hydrophobic interactions between alanine residues and aromatic rings in the THP structure. […] Both ionic and hydrophobic interactions are the possible main interactions of EAR8-II and THP, i.e., the protonation of THP in an acidic EAR8-II solution and hydrophobic interaction between THP and hydrophobic side chains of EAR8-II are the dominant forces in complexation of EAR8-II-THP. […]

A549 cells = assay: Cellular toxicity, CCK-8 assay, A549; type: cell-based, Human; conditions: 24 h
Protocol: as §1

[2] = Tapping mode atomic force microscopy of nanostructure; type: physicochemical; conditions: tapping mode AFM, EAR8-II 0.5 mg/mL
Protocol: Figure 2. Nanostructure of (A) EAR8-II and (C) EAR8-II-THP complex by tapping mode atomic force microscopy; Intensity-based particle size distribution of (B) EAR8-II and (D) EAR8-II-THP complex in aqueous solution by dynamic light scattering. EAR8-II concentration is 0.5 mg/mL, and THP concentration is 0.1 mg/mL.

[3] = Dynamic light scattering, particle size of peptide and peptide-drug complexes; type: physicochemical; conditions: DLS, intensity-based, aqueous solution, EAR8-II 0.5 mg/mL, 25 °C, no drug
Protocol: EAR8-II peptide solutions in the concentration range of 0.05–2 mg/mL (0.0547–2.188 mM) were prepared by dissolving peptide lyophilized powder in Milli-Q (18.2 MΩ) water (EMD Millipore, Billerica, MA, USA) followed by bath sonicating for 10 min. Freshly prepared peptide solutions were added to THP to reach fixed [THP] concentrations at 0.1 mg/mL (0.159 mM), followed by mechanical stirring at 900 rpm for 24 h.
The particle size distribution and zeta potential of peptide-drug complexes at different peptide-to-drug ratios were measured by a Zetasizer Nano ZS (Malvern Instruments, Worcestershire, UK). Appropriate settings, viscosity, refractive index, and dispersant solvent were set for each measurement at 25 °C. A small 50 μL volume of the sample was transferred from the vial to a disposable solvent resistant micro cuvette (ZEN0040, Malvern, Worcestershire, UK). The scattered light intensities of the samples were collected at an angle of 173°. This was known as backscatter detection, i.e., the relationship between the size of a particle and its scattered light intensity obtained with the multimodal Contin algorithm, which was provided in the Dispersion Technology Software 5.1 package (Malvern Instruments, Worcestershire, UK).

[4] = Steady-state THP fluorescence, encapsulation of THP by EAR8-II; type: physicochemical; conditions: [THP] = 0.1 mg/mL, fluorescence excitation 480 nm / emission 590 nm, plateau of intensity
Protocol: The amount of protonated THP in EAR8-II is also determined by measuring the fluorescence intensity of the excitation and emission by THP at different EAR8-II concentrations. Protonated THP absorbs light at 480 nm, and emits light at 590–600 nm. Fluorescence intensity for both the excitation and emission spectra is proportional to the concentration of protonated THP stabilized in the peptide solution. Although the initial concentration of THP was constant in each complex, the amount of protonated THP varied due to the dependency of the THP encapsulation efficiency on peptide concentration.
The THP fluorescence emission spectra were acquired on a photon technology international spectrafluorometer (Type QM4-SE, London, ON, Canada) with a continuous xenon lamp as the light source. The emission spectra were collected in the wavelength range of 500–800 nm, while samples were excited at 480 nm. The maximum emission peak of THP is at a wavelength of 590–600 nm. […] The fluorescence intensity at 590 and 480 nm for emission and excitation were obtained by taking the average of twenty points of fluorescence intensity, respectively. Each fluorescence spectrum was divided by lamp intensity to account for eventual lamp fluctuations. The normalized fluorescence intensity for both emission and excitation spectra at 590 and 480 nm was plotted for various peptide-to-drug ratios.

average height of self-assembled fibres [2] [nm]	average width of self-assembled fibres [2] [nm]	minimum EAR8-II concentration at which THP is dissolved and stabilized ([1]; aqueous solution, [THP] = 0.1 mg/mL, stirring at 900 rpm 24 h) [mg/mL]	hydrodynamic diameter of aggregates [3]	minimum concentration of peptide required to fully encapsulate THP [4]	Compound	cellular viability (HeLa cells; THP at 38 μM in water, no peptide) [%]	cellular toxicity in absence of peptide (HeLa cells; THP control without peptide)	solubility of THP in water ([1]; water, no peptide, THP 0.1 mg/mL, stirring 24 h)	cellular viability (A549 cells; A549, THP at 38 μM in water, no peptide) [%]	cellular toxicity in absence of peptide (A549 cells; A549, THP control without peptide)
–	–	–	–	–	COc1cccc2c1C(=O)c1c(O)c3c(c(O)c1C2=O)C[C@@](O)(C(=O)CO)C[C@@H]3O[C@H]1C[C@H](N)[C@H](O[C@@H]2CCCCO2)[C@H](C)O1 [THP, 4-O-tetrahydropyranyladriamycin]	29.58 ± 3.69	non-significant cellular toxicity	very low	64.9 ± 6.4	non-significant cellular toxicity
15	10	0.2	~ 500 nm	~ 0.5 mg/mL	Ac-AEAEARAR-NH2 [EAR8-II, Ac-AEAEARAR-NH2]	–	–	–	–	–

From article PMC3876047, “Self/Co-Assembling Peptide, EAR8-II, as a Potential Carrier for a Hydrophobic Anticancer Drug Pirarubicin (THP)—Characterization and in-Vitro Delivery” (International Journal of Molecular Sciences, 2013)
